For data set [1], the system named is SARS CoV-2 (USA_WA1/2020). Put plainly: Cytopathic effect (CPE) assay. The class given is cell-based. Particulars: for Emax: read-out: Efficacy CPE assay. (In general: Cytopathic effects are the visible damage that an infection or toxin causes in cultured cells.)
Data set [2] concerns Vero-E6. Put plainly: Cytotoxicity counter screen (cell viability, CellTiter-Glo). The data set is classed as cell-based. To be noted: for IC50: Chlorocebus sabaeus, read-out: IC50 (μM) cell viability. As to the method: Compound cytotoxicity was assessed in a BSL-2 counter screen as follows: Cell culture media (MEM, 1% Pen/Strep/GlutaMax, 1% HEPES, 2% HI FBS) was dispensed at 5 μl/well into ARPs and incubated at room temperature to allow for compound dissolution. Vero-E6 (selected for high ACE2 expression) was dispensed into assay plates at 4000 cells/well in 25 μl media. Assay plates were incubated for 72 h at 37 C, 5% CO2, 90% humidity. Then, 30 μl/well of CellTiter-Glo (Promega #G7573) was dispensed into the assay plate. Luminescence was read using a BMG PHERAstar plate reader following incubation at room temperature for 10 min to measure cell viability.
(Counterscreens check selectivity or assay interference.)

Data set [3] can be described thus: physchem. To be noted: kinetic from dmso stock.
Data set [4] in a line: in vitro. Particulars: PAMPA.
Data set [5] concerns ZIKV. To be noted: cited from earlier work.
Data set [6] in a line: Rat liver microsomal (RLM) stability. To be noted: for half-life: rat. In general terms: Liver microsomes are vesicles of endoplasmic reticulum, rich in cytochrome P450 enzymes.
Data set [7] in a line: Parallel artificial membrane permeability assay (PAMPA). Particulars: for Papp / Permeability: PAMPA; for Permeability: Tier I ADME.
Data set [8] is described as follows: Pharmacokinetics in mice IV 3 and PO 10 mg/kg; plasma, lung and liver.
A short description of data set [9]: Kinetic solubility (Tier I ADME). Particulars: kinetic from dmso stock.
Data set [10] has as its system SARS-CoV-2. To be noted: EIDD-2801 250 mpk BID; Compound P3 60 mpk BID.
Text: EIDD-2801 (molnupiravir) was chosen as the positive control at 250 mpk BID oral dose.
[11] abbreviates: Severe acute respiratory syndrome coronavirus 2, Vero C1008, % inhibition of CPE, SARS-CoV-2-infected Vero-E6, 72 h.
Where [12] appears, read: Severe acute respiratory syndrome coronavirus 2, Vero C1008, rescue IC50, SARS-CoV-2-infected Vero-E6, 72 h.
Setting [13] is: Vero C1008, uninfected Vero-E6, 72 h, CellTiter-Glo.
Setting [14] is: uninfected Vero-E6, 72 h, CellTiter-Glo.
Where [15] appears, read: mice, Compound P3 dosed PO 10 mg/kg, Liver.
Where [16] appears, read: mice, Compound P3 dosed PO 10 mg/kg, Plasma.
The mark [17] stands for this setting: mouse Plasma, Compound P3 dosed IV 3 mg/kg.
The mark [18] stands for this setting: mouse Plasma, Compound P3 dosed PO 10 mg/kg.
[19] abbreviates: Severe acute respiratory syndrome coronavirus 2, Vero C1008, 72 h.

Converted amounts (≈) assume the structure as drawn. Where two headings read alike, the source gives them in different places. A value given as a limit tells only on which side of the number the result lay.

Results on 15 compounds are retold here after US20240002332A1, “Small Molecule Inhibitors of SARS-CoV-2 Infections” (priority 2020, published 2024).

As usually defined, the IC50 is the point on the concentration scale where inhibition reaches its midpoint. As a reminder, the solubility is the dissolved amount per volume that the medium holds. Higher therefore signals much dissolved substance. By Papp is commonly meant the rate of passage across a membrane or cell layer, normalised by area and donor concentration. Lower therefore signals slow passage. Turning to `O=C(Oc1ccc(Cl)cc1C(=O)Nc1ccc([N+](=O)[O-])cc1Cl)c1ccc(C(F)(F)F)cc1` [Compound P1, 4-chloro-2-((2-chloro-4-nitrophenyl)carbamoyl)phenyl 4-(trifluoromethyl)benzoate], the Emax in [1] (setting [11]) turned out to be 34%. Moreover, the IC50 in data set [1] (setting [12]) was determined as 0.11 µM; in data set [2] (setting [13]) it was 0.57 µM. This compound yielded an Efficacy cell viability in data set [2] (setting [14]) of −96.34. In data set [3], this compound registered a solubility of less than 1 µg/mL. The compound also registered a Papp in [4] of less than 2.6 ×10⁻⁶ cm/s.
As for `CC(C)OC(=O)Oc1ccc(Cl)cc1C(=O)Nc1ccc([N+](=O)[O-])cc1Cl` [Compound P6, 4-chloro-2-((2-chloro-4-nitrophenyl)carbamoyl)phenyl isopropyl carbonate], in data set [1] (setting [11]), the Emax was 37.1%. Further, the IC50 in data set [1] (setting [12]) worked out at 0.11 µM; in data set [2] (setting [13]) it was 0.45 µM. The Efficacy cell viability in data set [2] (setting [14]) was −82.3. Also, in data set [3], the solubility was less than 1 µg/mL. In addition, in [4] (pH 5), the Papp was 57 ×10⁻⁶ cm/s.
For `CCCCCCCC(=O)Oc1ccc(Cl)cc1C(=O)Nc1ccc([N+](=O)[O-])cc1Cl` [Compound P2, 4-chloro-2-((2-chloro-4-nitrophenyl)carbamoyl)phenyl octanoate], in data set [1] (setting [11]), the Emax is 36.5%. The IC50 amounted to 0.1 µM in [1] (setting [12]) and 0.57 µM in [2] (setting [13]). In data set [2] (setting [14]), the Efficacy cell viability is listed as −95.8. Moreover, in data set [3], the concentration in solution (solubility) came to 1.1 µg/mL (≈ 2.43 µM). Also, the Papp in data set [4] is less than 6.5 ×10⁻⁶ cm/s.
The term half-life denotes the time needed for the level to fall by half in the phase considered. A word on the Cmax: it is the maximum level reached in the sampled fluid or tissue. The t½ is the time in which the quantity being followed falls by half. A high value points to slow decline. As usually defined, the AUC(0-inf) is total exposure, with the tail of the curve extrapolated. Lower therefore signals less exposure. In general, AUC(0-t) refers to the area under the concentration-time curve up to a stated or last time point. A lower AUC(0-t) goes with less exposure. Usually Tmax stands for the time at which the peak concentration occurs. As to `O=C(Nc1ccc([N+](=O)[O-])cc1Cl)c1cc(Cl)ccc1O` [Niclosamide, 5-chloro-N-(2-chloro-4-nitrophenyl)-2-hydroxybenzamide, reference compound], in data set [5] (early stages and 24 h post infection), the ZIKV growth entry is reported as “inhibited ZIKV growth”. In addition, the ZIKV titer result in [5] (human placental epithelial cells and iPSC-derived human neural progenitor cells) was “reduced ZIKV titer”. Further, in [6] (rat liver microsomes), the “RLM stability (T1/2 min)” value is greater than 30 min and the half-life is greater than 30 min. Also, the “permeability in PAMPA” value in data set [7] (result in words) is recorded as “unable to be quantified in the acceptor compartment”. In [8] (setting [15]), the “AUC_% Extrap” value is 4.4% and the t1/2 is 438 min. For the same compound, the “AUC_% Extrap” value in data set [8] (mice, Compound P3 dosed PO 10 mg/kg, Lung) amounted to 0.6%. In data set [8] (setting [16]), the AUC0-INF worked out at 1620 ng·h/mL and the “AUC_% Extrap” value stood at 1.0%. Moreover, in data set [8] (setting [17]), the AUC_%Extrap_obs stood at 0.3%, the Clast came out at 0.329 ng/mL and the Tlast was 30 h. In data set [8] (setting [18]), this compound gave an AUCINF_obs of 1620 ng·h/mL, an AUC_%Extrap_obs of 1.0%, a Clast of 4.04 ng/mL and a Cmax of 346 ng/mL. Besides, in [8] (setting [18]), the Tlast came out at 30 h and the t½ is 162 min. Moreover, in data set [8] (mouse, liver, po, 10 mg/kg), the AUC(0-inf) came out at 9250 ng·h/mL, the AUC(0-t) is 8850 ng·h/mL and the peak level (Cmax) was 882 ng/mL. In [8] (mouse, lung, po, 10 mg/kg), the AUC(0-inf) came out at 3080 ng·h/mL, the AUC(0-t) is 3060 ng·h/mL, the Cmax worked out at 397 ng/mL and the half-life is 258 min. In addition, in data set [8] (mouse, plasma, iv, 3 mg/kg), the AUC(0-inf) worked out at 587 ng·h/mL, the AUC(0-t) stood at 585 ng·h/mL, the Cmax came out at 168 ng/mL and the Tmax worked out at 4.98 min. The compound also had a half-life in data set [8] (mouse, plasma, iv, 3 mg/kg) of 216 min. In data set [8] (mouse, plasma, po, 10 mg/kg), this compound had an AUC(0-t) of 1600 ng·h/mL and a half-life of 162 min.
`CC(C)COC(=O)Oc1ccc(Cl)cc1C(=O)Nc1ccc([N+](=O)[O-])cc1Cl` [Compound P9, 4-chloro-2-((2-chloro-4-nitrophenyl)carbamoyl)phenyl isobutyl carbonate]: the Emax in data set [1] (setting [11]) was found to be 35.2%. Besides, the IC50 in data set [1] (setting [12]) was determined as 0.13 µM; in [2] (setting [13]), 0.57 µM. Besides, the Efficacy cell viability in [2] (setting [14]) is reported as −91.0. The compound also returned a solubility in [3] of 4.48 µg/mL (≈ 10.5 µM).
Turning to `CCOP(=O)(OCC)Oc1ccc(Cl)cc1C(=O)Nc1ccc([N+](=O)[O-])cc1Cl` [Compound P8, 4-chloro-2-((2-chloro-4-nitrophenyl)carbamoyl)phenyl diethyl phosphate], in data set [1] (setting [19]), half-maximal inhibition (IC50) was put at 0.41 µM and the Emax turned out to be 36.8%. In data set [2] (Vero C1008, 72 h), the IC50 was 0.91 µM. The compound also showed an Efficacy cell viability in [2] (setting [14]) of −90.6. The compound further came in with a solubility in data set [9] of less than 1 µg/mL. Moreover, the half-life in data set [6] (microsomes) was greater than 30 min. Moreover, in data set [7], the Papp worked out at 982 ×10⁻⁶ cm/s.
As for `O=C(Nc1ccc([N+](=O)[O-])cc1)c1cc(Cl)ccc1O` [Compound 24, 5-chloro-2-hydroxy-N-(4-nitrophenyl)benzamide], in data set [2] (Vero C1008, 72 h), the IC50 turned out to be 0.57 µM. The Efficacy cell viability in data set [2] (setting [14]) is −93.1. For the same compound, in data set [6] (rat liver microsomes), the “RLM stability (T1/2 min)” value turned out to be 22 min. Moreover, in [7], the Permeability was 127.13 10^−6 cm/sec.
Regarding `O=C(Nc1ccc(C(F)(F)F)cc1)c1cc(Cl)ccc1O` [Compound 39, 5-chloro-2-hydroxy-N-(4-(trifluoromethyl)phenyl)benzamide], the IC50 in data set [2] (Vero C1008, 72 h) came to 0.45 µM. In addition, in [2] (setting [14]), the Efficacy cell viability is −94.6. In data set [6] (microsomes), this compound came in with a half-life greater than 30 min. In data set [7], the Papp was 22.3 ×10⁻⁶ cm/s.
Consider `N#Cc1ccc(NC(=O)c2cc(Cl)ccc2O)c(Cl)c1` [Compound 32, 5-chloro-N-(2-chloro-4-cyanophenyl)-2-hydroxybenzamide], for which, in [2] (setting [13]), the IC50 came out at 1.01 µM. In addition, in data set [2] (setting [14]), the Efficacy cell viability was −99.6. The same compound displayed a half-life in data set [6] (rat liver microsomes) greater than 30 min. In data set [7], the Papp came out at 5.16 ×10⁻⁶ cm/s.
Take `COc1cc([N+](=O)[O-])ccc1NC(=O)c1cc(Cl)ccc1O` [Compound 27, 5-chloro-2-hydroxy-N-(2-methoxy-4-nitrophenyl)benzamide]: the IC50 in data set [2] (Vero C1008, 72 h) amounted to 0.64 µM. Further, the Efficacy cell viability in [2] (setting [14]) was −92.9. In addition, the half-life in [6] (microsomes) was greater than 30 min. Besides, in data set [7], the Permeability was 334.4 10^−6 cm/sec.
Consider `O=C(Nc1ccc([N+](=O)[O-])cc1Cl)c1cc(Cl)ccc1OC1CCNCC1` [Compound 4, 5-chloro-N-(2-chloro-4-nitrophenyl)-2-(piperidin-4-yloxy)benzamide], for which the Emax in [1] (setting [11]) was -8.3%. For the same compound, the IC50 in data set [1] (setting [12]) is 5.1 µM; in data set [2] (setting [13]), 4.05 µM. In addition, the concentration in solution in data set [9] (solubility) came to 8.4 µg/mL (≈ 20.5 µM). In addition, in [6] (rat liver microsomes), the half-life was greater than 30 min. In [7], this compound displayed a Papp of 516 ×10⁻⁶ cm/s.
For `COCC(=O)Oc1ccc(Cl)cc1C(=O)Nc1ccc([N+](=O)[O-])cc1Cl` [Compound P5, 4-chloro-2-((2-chloro-4-nitrophenyl)carbamoyl)phenyl 2-methoxyacetate], the Emax in [1] (setting [11]) stood at 37%. In addition, the IC50 in data set [1] (setting [12]) amounted to 0.11 µM; in [2] (setting [13]), 0.51 µM. Moreover, the Efficacy cell viability in data set [2] (setting [14]) was −91.2. The solubility in data set [3] is less than 1 µg/mL.
On to `CC(=O)Oc1ccc(Cl)cc1C(=O)Nc1ccc([N+](=O)[O-])cc1Cl` [Compound P4, 4-chloro-2-((2-chloro-4-nitrophenyl)carbamoyl)phenyl acetate], for which, in data set [1] (setting [11]), the Emax is 36.2%. For the same compound, the IC50 is 0.25 µM in data set [1] (setting [12]) and 0.57 µM in [2] (setting [13]). This compound also yielded an Efficacy cell viability in data set [2] (setting [14]) of −93.0. The solubility in [3] was less than 1 µg/mL. Further, the apparent permeability coefficient (Papp) in data set [4] was 632 ×10⁻⁶ cm/s.
`O=C(Oc1ccc(Cl)cc1C(=O)Nc1ccc([N+](=O)[O-])cc1Cl)c1ccccc1` [Compound P7, 4-chloro-2-((2-chloro-4-nitrophenyl)carbamoyl)phenyl benzoate]: the Emax in data set [1] (setting [11]) was 26.9%. Besides, the values for the IC50 in data set [1] (setting [12]) and in data set [2] (setting [13]) were 0.13 µM and 0.32 µM, respectively. This compound displayed an Efficacy cell viability in data set [2] (setting [14]) of −94.0. For the same compound, the solubility in [3] was less than 1 µg/mL.
As for `CC(C)C(=O)OC[C@H]1O[C@@H](n2ccc(NO)nc2=O)[C@H](O)[C@@H]1O` [EIDD-2801, reference compound], in data set [10], the “IHC immunoreactivity staining in the right lung” value is “lowered in severity”.
